ChEMBL document CHEMBL4673219, “Novel 5,6-disubstituted pyrrolo[2,3-d]pyrimidine derivatives as broad spectrum antiproliferative agents: Synthesis, cell based assays, kinase profile and molecular docking study” (Bioorg Med Chem, 2018)
Several values for one entry are separate records, joined by “and”; a condition that tells them apart may be missing. Identical values can stand only once.

Key:
[1] = test system: HOP-92; test: Growth inhibition of human HOP-92 cells incubated for 48 hrs by sulforhodamine B assay; type: functional
[2] = test system: MCF7; test: Growth inhibition of human MCF7 cells assessed as growth percentage at 0.01 uM incubated for 48 hrs by sulforhodamine B assay relative to control; type: functional; settings: read-out: Activity
[3] = test system: HCC 2998; test: Growth inhibition of human HCC 2998 cells assessed as growth percentage at 100 uM incubated for 48 hrs by sulforhodamine B assay relative to control; type: functional; settings: read-out: Activity
[4] = test system: KM12; test: Growth inhibition of human KM12 cells incubated for 48 hrs by sulforhodamine B assay; type: functional; settings: for TGI: KM12
[5] = test system: MCF7; test: Growth inhibition of human MCF7 cells assessed as growth percentage at 1 uM incubated for 48 hrs by sulforhodamine B assay relative to control; type: functional; settings: read-out: Activity
[6] = test system: HOP-62; test: Growth inhibition of human HOP-62 cells assessed as growth percentage at 0.01 uM incubated for 48 hrs by sulforhodamine B assay relative to control; type: functional; settings: read-out: Activity
[7] = test system: SK-OV-3; test: Growth inhibition of human SK-OV-3 cells incubated for 48 hrs by sulforhodamine B assay; type: functional; settings: for GI50: SK-OV-3
[8] = test system: SR; test: Growth inhibition of human SR cells assessed as growth percentage at 1 uM incubated for 48 hrs by sulforhodamine B assay relative to control; type: functional; settings: read-out: Activity
[9] = test system: NCI-H322M; test: Growth inhibition of human NCI-H322M cells assessed as growth percentage at 0.01 uM incubated for 48 hrs by sulforhodamine B assay relative to control; type: functional; settings: read-out: Activity
[10] = test system: Malme-3M; test: Growth inhibition of human Malme-3M cells incubated for 48 hrs by sulforhodamine B assay; type: functional; settings: for GI50: 48 h
[11] = test system: CCRF-CEM; test: Growth inhibition of human CCRF-CEM cells assessed as growth percentage at 0.01 uM incubated for 48 hrs by sulforhodamine B assay relative to control; type: functional; settings: read-out: Activity
[12] = target: High affinity nerve growth factor receptor (Homo sapiens, UniProt P04629); test: Inhibition of human Trk-A using myelin basic protein as substrate incubated for 40 mins in presence of [gamma33P]ATP by scintillation counting method
[13] = test system: MDA-MB-468; test: Growth inhibition of human MDA-MB-468 cells assessed as growth percentage at 1 uM incubated for 48 hrs by sulforhodamine B assay relative to control; type: functional; settings: read-out: Activity
[14] = test system: HCC 2998; test: Growth inhibition of human HCC 2998 cells assessed as growth percentage at 1 uM incubated for 48 hrs by sulforhodamine B assay relative to control; type: functional; settings: read-out: Activity
[15] = test system: PC-3; test: Growth inhibition of human PC-3 cells incubated for 48 hrs by sulforhodamine B assay; type: functional; settings: for CC50: read-out: LC50 (the source's name)
[16] = test system: SK-BR-3; test: Antiproliferative activity against human SK-BR-3 cells assessed as cell growth inhibition at 10 uM measured after 72 hrs by MTT assay relative to control; type: functional; settings: read-out: GI
[17] = test system: SK-MEL-5; test: Growth inhibition of human SK-MEL-5 cells assessed as growth percentage at 100 uM incubated for 48 hrs by sulforhodamine B assay relative to control; type: functional; settings: read-out: Activity
[18] = test system: NCI-H460; test: Growth inhibition of human NCI-H460 cells assessed as growth percentage at 100 uM incubated for 48 hrs by sulforhodamine B assay relative to control; type: functional; settings: read-out: Activity
[19] = test system: LOX IMVI; test: Growth inhibition of human LOX IMVI cells assessed as growth percentage at 0.01 uM incubated for 48 hrs by sulforhodamine B assay relative to control; type: functional; settings: read-out: Activity
[20] = test system: Malme-3M; test: Growth inhibition of human Malme-3M cells assessed as growth percentage at 0.1 uM incubated for 48 hrs by sulforhodamine B assay relative to control; type: functional; settings: read-out: Activity
[21] = test system: SN12C; test: Growth inhibition of human SN12C cells assessed as growth percentage at 1 uM incubated for 48 hrs by sulforhodamine B assay relative to control; type: functional; settings: read-out: Activity
[22] = test system: KM12; test: Growth inhibition of human KM12 cells assessed as growth percentage at 10 uM incubated for 48 hrs by sulforhodamine B assay relative to control; type: functional; settings: read-out: Activity
[23] = test system: RXF 393; test: Growth inhibition of human RXF 393 cells assessed as growth percentage at 1 uM incubated for 48 hrs by sulforhodamine B assay relative to control; type: functional; settings: read-out: Activity
[24] = test system: MDA-MB-435; test: Growth inhibition of human MDA-MB-435 cells incubated for 48 hrs by sulforhodamine B assay; type: functional; settings: for TGI: MDA-MB-435; for CC50: MDA-MB-435, read-out: LC50 (the source's name)
[25] = test system: MDA-MB-435; test: Growth inhibition of human MDA-MB-435 cells assessed as growth percentage at 0.01 uM incubated for 48 hrs by sulforhodamine B assay relative to control; type: functional; settings: read-out: Activity
[26] = test system: UO-31; test: Growth inhibition of human UO-31 cells assessed as growth percentage at 0.1 uM incubated for 48 hrs by sulforhodamine B assay relative to control; type: functional; settings: read-out: Activity
[27] = test system: K562; test: Growth inhibition of human K562 cells assessed as growth percentage at 0.1 uM incubated for 48 hrs by sulforhodamine B assay relative to control; type: functional; settings: read-out: Activity
[28] = test system: MDA-MB-231; test: Growth inhibition of human MDA-MB-231/ATCC cells assessed as growth percentage at 0.1 uM incubated for 48 hrs by sulforhodamine B assay relative to control; type: functional; settings: read-out: Activity
[29] = test system: KM12; test: Growth inhibition of human KM12 cells assessed as growth percentage at 1 uM incubated for 48 hrs by sulforhodamine B assay relative to control; type: functional; settings: read-out: Activity
[30] = test system: SNB-75; test: Growth inhibition of human SNB-75 cells assessed as growth percentage at 100 uM incubated for 48 hrs by sulforhodamine B assay relative to control; type: functional; settings: read-out: Activity
[31] = test system: BT-549; test: Growth inhibition of human BT-549 cells assessed as growth percentage at 1 uM incubated for 48 hrs by sulforhodamine B assay relative to control; type: functional; settings: read-out: Activity
[32] = test system: SNB-19; test: Growth inhibition of human SNB-19 cells assessed as growth percentage at 100 uM incubated for 48 hrs by sulforhodamine B assay relative to control; type: functional; settings: read-out: Activity
[33] = test system: NCI-H522; test: Growth inhibition of human NCI-H522 cells assessed as growth percentage at 0.1 uM incubated for 48 hrs by sulforhodamine B assay relative to control; type: functional; settings: read-out: Activity
[34] = test system: DU-145; test: Growth inhibition of human DU-145 cells assessed as growth percentage at 1 uM incubated for 48 hrs by sulforhodamine B assay relative to control; type: functional; settings: read-out: Activity
[35] = test system: MDA-MB-468; test: Growth inhibition of human MDA-MB-468 cells incubated for 48 hrs by sulforhodamine B assay; type: functional
[36] = test system: MOLT-4; test: Growth inhibition of human MOLT-4 cells assessed as growth percentage at 100 uM incubated for 48 hrs by sulforhodamine B assay relative to control; type: functional; settings: read-out: Activity
[37] = test system: 786-0; test: Growth inhibition of human 786-0 cells assessed as growth percentage at 10 uM incubated for 48 hrs by sulforhodamine B assay relative to control; type: functional; settings: read-out: Activity

Sequence of High affinity nerve growth factor receptor (P04629 whole entry): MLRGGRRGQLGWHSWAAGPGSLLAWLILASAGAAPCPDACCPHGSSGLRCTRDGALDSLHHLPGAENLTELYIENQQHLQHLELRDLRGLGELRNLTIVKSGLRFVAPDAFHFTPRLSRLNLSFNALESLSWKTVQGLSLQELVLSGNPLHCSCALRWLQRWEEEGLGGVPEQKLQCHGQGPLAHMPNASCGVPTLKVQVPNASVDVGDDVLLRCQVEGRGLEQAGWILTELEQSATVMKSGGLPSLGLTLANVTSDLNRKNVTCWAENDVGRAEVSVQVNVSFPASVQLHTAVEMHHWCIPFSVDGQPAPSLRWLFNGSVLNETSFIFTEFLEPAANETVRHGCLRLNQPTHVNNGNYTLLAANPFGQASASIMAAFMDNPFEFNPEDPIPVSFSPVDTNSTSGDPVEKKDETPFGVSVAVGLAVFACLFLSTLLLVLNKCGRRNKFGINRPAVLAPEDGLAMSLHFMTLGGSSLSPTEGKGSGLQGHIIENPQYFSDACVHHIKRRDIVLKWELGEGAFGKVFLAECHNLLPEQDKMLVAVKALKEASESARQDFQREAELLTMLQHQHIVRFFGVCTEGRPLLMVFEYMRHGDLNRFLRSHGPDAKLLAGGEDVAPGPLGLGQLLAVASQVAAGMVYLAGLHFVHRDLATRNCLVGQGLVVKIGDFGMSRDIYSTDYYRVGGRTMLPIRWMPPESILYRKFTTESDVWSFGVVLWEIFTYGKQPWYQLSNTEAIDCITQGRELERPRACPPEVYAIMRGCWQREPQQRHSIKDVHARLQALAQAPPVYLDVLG

SMILES: Nc1nc2[nH]c(CN3CCN(c4cc(Cl)cc(Cl)c4)CC3)c(CN3CCN(c4cc(Cl)cc(Cl)c4)CC3)c2c(=O)[nH]1
- GI50 ([1]; Homo sapiens, HOP-92): 1.35 µM
- TGI ([1]; Homo sapiens, HOP-92, 48 h): 3.54 µM
- growth at 0.01 µM [2]: 86%
- growth at 100 µM [3]: -38%
- TGI ([4]; Homo sapiens): 3.42 µM
- GI50 ([4]; Homo sapiens, KM12, 48 h): 1.83 µM
- CC50 ([4]; Homo sapiens, KM12, read-out: LC50 (the source's name)): 6.38 µM
- growth at 1 µM [5]: 79%
- growth at 0.01 µM [6]: 81%
- TGI ([7]; 48 h): 17.5 µM and 1.75 µM
- GI50 ([7]; Homo sapiens): 4.62 µM
- growth at 1 µM [8]: 67%
- growth at 0.01 µM [9]: 102%
- TGI ([10]; Homo sapiens, Malme-3M): 3.93 µM
- GI50 ([10]; Homo sapiens, Malme-3M): 2 µM
- growth at 0.01 µM [11]: 99%
- IC50 [12]: 12.4 µM
- growth at 1 µM [13]: 85%
- growth at 1 µM [14]: 93%
- GI50 [15]: 1.76 µM
- TGI [15]: 3.89 µM
- CC50 [15]: 8.61 µM
- inhibition of growth at 10 µM [16]: 90%
- growth at 100 µM [17]: -61%
- growth at 100 µM [18]: -58%
- growth at 0.01 µM [19]: 99%
- growth at 0.1 µM [20]: 90%
- growth at 1 µM [21]: 95%
- growth at 10 µM [22]: 64.2%
- growth at 1 µM [23]: 85%
- TGI ([24]; Homo sapiens): 3.04 µM
- GI50 ([24]; Homo sapiens, MDA-MB-435, 48 h): 1.62 µM
- CC50 ([24]; Homo sapiens): 5.72 µM
- growth at 0.01 µM [25]: 89%
- growth at 0.1 µM [26]: 92%
- growth at 0.1 µM [27]: 96%
- growth at 0.1 µM [28]: 98%
- growth at 1 µM [29]: 99%
- growth at 100 µM [30]: -76%
- growth at 1 µM [31]: 85%
- growth at 100 µM [32]: -16%
- growth at 0.1 µM [33]: 97%
- growth at 1 µM [34]: 105%
- TGI ([35]; Homo sapiens, MDA-MB-468): 3.75 µM
- GI50 ([35]; Homo sapiens, MDA-MB-468, 48 h): 1.72 µM
- growth at 100 µM [36]: -7%
- growth at 10 µM [37]: 72.6%

SMILES: CCCCCCCC(=O)Nc1nc2[nH]c(CN3CCN(Cc4cccc(F)c4)CC3)c(CN3CCN(Cc4cccc(F)c4)CC3)c2c(=O)[nH]1
- TGI ([1]; 48 h): 2.42 µM and 0.82 µM
- GI50 ([1]; Homo sapiens, HOP-92): 1.14 µM
- LC50 ([1]; Homo sapiens, HOP-92): 5.14 µM
- growth at 0.01 µM [2]: 91%
- growth at 100 µM [3]: -79%
- GI50 ([4]; 48 h): 0.72 µM
- TGI ([4]; Homo sapiens): 2.38 µM
- GI50 ([4]; Homo sapiens, KM12, 48 h): 0.719 µM
- growth at 1 µM [5]: -51%
- growth at 0.01 µM [6]: 99%
- GI50 ([7]; Homo sapiens): 1.9 µM
- LC50 ([7]; Homo sapiens, SK-OV-3, 48 h): 5.86 µM
- TGI ([7]; Homo sapiens, SK-OV-3, 48 h): 3.33 µM
- growth at 1 µM [8]: -31%
- growth at 0.01 µM [9]: 94%
- GI50 [10]: 0.67 µM
- TGI ([10]; Homo sapiens, Malme-3M): 2.24 µM
- GI50 ([10]; Homo sapiens, Malme-3M): 0.672 µM
- CC50 ([10]; Homo sapiens, Malme-3M, read-out: LC50 (the source's name)): 6.11 µM
- growth at 0.01 µM [11]: 98%
- IC50 [12]: 2.25 µM
- growth at 1 µM [13]: 29%
- growth at 1 µM [14]: -33%
- GI50 [15]: 1.3 µM
- TGI [15]: 2.67 µM
- CC50 [15]: 5.47 µM
- inhibition of growth at 10 µM [16]: 93.1%
- growth at 100 µM [17]: -81%
- growth at 100 µM [18]: -85%
- growth at 0.01 µM [19]: 87%
- growth at 0.1 µM [20]: 96%
- growth at 1 µM [21]: 76%
- growth at 10 µM [22]: -88.9%
- growth at 1 µM [23]: 29%
- GI50 ([24]; 48 h): 0.32 µM
- TGI ([24]; Homo sapiens): 1.24 µM
- GI50 ([24]; Homo sapiens, MDA-MB-435, 48 h): 0.317 µM
- CC50 ([24]; Homo sapiens): 3.77 µM
- growth at 0.01 µM [25]: 99%
- growth at 0.1 µM [26]: 84%
- growth at 0.1 µM [27]: 87%
- growth at 0.1 µM [28]: 108%
- growth at 1 µM [29]: 43%
- growth at 100 µM [30]: -99%
- growth at 1 µM [31]: 63%
- growth at 100 µM [32]: -83%
- growth at 0.1 µM [33]: 94%
- growth at 1 µM [34]: 56%
- GI50 ([35]; 48 h): 0.48 µM
- LC50 (concentration killing 50% of cells) ([35]; Homo sapiens, MDA-MB-468): 5.31 µM
- TGI ([35]; Homo sapiens, MDA-MB-468): 1.84 µM
- GI50 ([35]; Homo sapiens, MDA-MB-468, 48 h): 0.477 µM
- growth at 100 µM [36]: -7%
- growth at 10 µM [37]: -100%
